Assays:
H3K79 methylation = assay: Total H3K79me2 levels in fibroblasts by western blotting; format: cell-based, human; conditions: 1 uM to 10 uM concentration range, fibroblasts treated 5 days
Source text: In addition to the shRNA mediated knockdown of Dot1L, a small molecule inhibitor of Dot1L catalytic activity was used to further validate the findings^15. […] Data correspond to the average and s.d.; n=3. *P<0.001 compared untreated fibroblasts.

dH1f cells = assay: Reprogramming assay, Tra-1-60+ iPSC colonies from dH1f fibroblasts; format: cell-based, human
Procedure: dH1f cells were first infected with shRNA viruses at high MOI to ensure all cells received at least one vector (Gauged by puromycin resistance of parallel infected wells). 25,000 shRNA-infected dH1f cells were then plated per well in 12-well plates and infected overnight with either retroviral (MOI 2.5) 7 or lentiviral (Addgene #21162, 21164; 100-200 μl supernatant)29 reprogramming factors. For 2-factor reprogramming, Oct4 and Sox2 viruses were used at an MOI of 5. 6 days later, cells were trypsinized and re-plated 1:4 to 1:6 onto 6-well plates. Medium was changed to hES medium daily until Day 21 when plates were fixed. Small molecule inhibitor of Dot1L, EPZ004777 (a gift from Epizyme, Inc., Cambridge, Mass.) was dissolved in DMSO as a 10 mM stock and was added at the indicated concentrations. For Dot1L rescue experiments, an MSCV-based retroviral vector encoding human Dot1L with or without mutations in the SAM binding site (gifts of Y. Zhang) were mutagenized at the shRNA target site using QuikChange II XL Site-Directed Mutagenesis Kit (Agilent Technologies). In certain experiments, Nanog and Lin28 expression was achieved using lentivirus (Addgene #21163). IMR-90 and MRC5 human diploid fibroblasts were purchased from ATCC and 50000 cells were used in reprogramming experiments. Statistical analysis was performed using a Student's t-test.
Immunostaining of reprogramming plates were performed as described^8. Briefly, cells were fixed with 4% p-formaldehyde and stained with biotin-anti-Tra-1-60 (eBioscience, #13-8863-82, 1:250) and streptavidin horseradish peroxidase (Biolegend, #405210, 1:500) diluted in PBS (3%), FCS (0.3%) Triton X-100. Staining was developed with the Vector labs DAB kit (#SK-4100), and iPSC colonies quantified with ImageJ software. For the characterization of shDot1l-iPS cells, single colonies were put onto MEF coated 96-well plates. The plates were fixed for 20 min with 4% p-formaldehyde/PBS (+/+), washed several times with PBS (+/+) and incubated overnight at 4° C. with primary antibody and Hoechst diluted in 3% donkey serum/3% BSA Fraction VII/0.01% Triton X-100/PBS (+/+); Hoechst, Invitrogen #H3570 (1:20,000), Tra-1-81/A488 (BD #560174), SSEA-4/A647 (BD #560219), Tra-1-60/A647 (BD #560122), Nanog, rabbit polyclonal (Abcam #ab21624), Oct4, rabbit polyclonal (Abcam #ab19857). For Nanog and Oct4, donkey anti-rabbit IgG/A555 (Molecular Probes #A31572) secondary antibody was used. After several washes with PBS (+/+), images were acquired using a BD Pathway 435 imager equipped with a ×10 objective.

Oct4-GFP MEFs = assay: Reprogramming of OSKM transduced Oct4-GFP MEFs, AP+ colonies; format: cell-based, mouse; conditions: iDot1L 10 um
Procedure: It was assessed whether these observations can be extended to the murine system. It was observed that, similar to human fibroblasts, iDot1L treatment led to 3-fold enhancement of reprogramming of Oct4-GFP MEFs (FIG. 3D). […] Data correspond to the average and s.d.; n=4. *P<0.001 compared untreated MEFs. Representative AP-stained wells and GFP-positive iPS colonies derived from each condition are shown in the lower panel.

[1] = system: iPS-derived secondary MEFs; assay: Reprogramming of inducible iPS-derived secondary MEFs, AP+ colonies; format: cell-based, mouse; conditions: doxycycline, iDot1L 10 um
H3K79me2 = assay: ChIP-seq for H3K79me2 on OSKM expressing fibroblasts; format: cell-based, human; conditions: iDot1L 10 uM; 6 days after OSKM
Procedure: ChIP-seq was performed as described with slight modifications^25. 300 000 cells were fixed at room temperature in PBS 1% formalin (v/v) for 10 minutes with gentle agitations. Fixation was stopped by the addition of glycine (125 mM final concentration) and agitation for 5 min at room temperature. Fixed cells were washed twice in ice-cold PBS, resuspended in 100 ul of SDS lysis buffer (1% SDS, 10 mM EDTA, 50 mM Tris-HCl, pH 8.1). Chromatin was sheared by sonication to about 100-500 bp fragments using bioruptor (diagenode, Denville, N.J.) and diluted tenfold with dilution buffer (0.01% SDS, 1.1% Triton-X100, 1.2 mM EDTA, 16.7 mM Tris-HCl, pH 8.1, 167 mM NaCl). Antibodies against specific histone modifications was added to sonicated chromatin solution and incubated at 4 degree overnight with gentle agitation. The antibodies used were anti-H3K27me3 (Millipore 07-449) and anti-H3K79me2 (abcam 3594). Immune complexes were collected by incubation with 20 ul of Protein A/G agarose beads (Millipore) for an hour at 4 degree with gentle agitation. […]

[2] = iDot1L 10 uM, OSKM, Tra-1-60+ colonies at 21 days

CC(C)N(CCCNC(=O)Nc1ccc(C(C)(C)C)cc1)C[C@H]1O[C@@H](n2ccc3c(N)ncnc32)[C@H](O)[C@@H]1O.Cl [EPZ004777]
H3K79 methylation (H3K79 methylation): abrogated H3K79 methylation robustly | enhancement of reprogramming of human fibroblasts (dH1f cells; OSKM, dH1f cells treated for 21 days, relative to untreated): 3-4 fold | reprogramming efficiency, inhibitor combined with Dot1L knockdown (dH1f cells; iDot1L 10 uM plus Dot1L shRNA, OSKM, 21 days): did not result in a further increase of reprogramming efficiency | reprogramming, pretreatment for 5 days prior to OSKM transduction (dH1f cells; [2]): no effect | reprogramming, treatment in the first or the second week (dH1f cells; [2]): sufficient to enhance reprogramming | reprogramming in the absence of Klf4, c-Myc or both (dH1f cells; iDot1L 10 uM, Tra-1-60 staining 21 days after reprogramming): allowed reprogramming in the absence of either Klf4 or Myc and was able to replace both of these exogenous factors | enhancement of reprogramming of Oct4-GFP MEFs (Oct4-GFP MEFs): 3 fold | reprogramming efficiency of secondary MEFs [1]: increased reprogramming efficiency | K79me2 levels on genes (H3K79me2): reduced on almost all genes
